{"source": "patent US20240270713A1", "about": "“NOVEL COMPOUND EXHIBITING THERAPEUTIC EFFECT ON INFLAMMATORY DISEASE AS P38 MAP KINASE INHIBITOR” (PRAZERTHERAPEUTICS INC., priority 2021, published 2024)", "key": {"p38 alpha": {"target": "p38 alpha (Homo sapiens (Human), UniProt Q16539)", "sequence (Q16539 whole entry)": "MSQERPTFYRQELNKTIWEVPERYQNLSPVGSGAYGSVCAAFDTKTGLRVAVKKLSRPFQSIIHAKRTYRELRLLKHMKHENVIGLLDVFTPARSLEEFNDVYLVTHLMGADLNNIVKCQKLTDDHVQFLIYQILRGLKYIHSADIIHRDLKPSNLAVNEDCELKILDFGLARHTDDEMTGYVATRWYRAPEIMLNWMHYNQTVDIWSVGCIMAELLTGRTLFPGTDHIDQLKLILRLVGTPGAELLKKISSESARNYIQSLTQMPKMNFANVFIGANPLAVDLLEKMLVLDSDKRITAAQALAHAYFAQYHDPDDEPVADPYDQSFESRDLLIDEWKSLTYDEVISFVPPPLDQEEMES", "assay": "p38α MAPK inhibitory ability (peptide/kinase mixture, development reagent, 445/520 nm)", "assay_type": "biochemical", "details": "1 hour at room temperature", "method": "Evaluation of p38a mitogen-activated protein kinase (MAPK) inhibitory ability\nTo determine the ability to inhibit p38 MAPK, Compounds 1 to 5 were diluted to determine the inhibitory effect depending on a concentration. Briefly, the compounds were diluted at concentrations of 1000, 333, 111, 37.0, 12.3, 4.12, 1.37, 0.457, 0.152, and 0.0495 nM, respectively, and then a peptide/kinase mixture (final 7.07-28.3 ng p38 alpha, 2 μM serine/threonine 15, 50 mM HEPES pH 7.0, 0.01% NaN3) and ATP solution were added respectively. After reacting at room temperature for 1 hour, a development reagent was added, followed by a reaction again at room temperature for 1 hour."}, "TNFα mRNA [1]": {"test_system": "TNFα mRNA", "assay": "Cytokine mRNA expression inhibitory ability, TNFα, LPS-treated BV2 cells", "assay_type": "cell-based", "details": "1 μM compound 24 hours, then 1000 ng/ml LPS 24 hours", "method": "(§1) Evaluation of cytokine mRNA expression inhibitory ability by inflammatory response\n(§2) In order to identify inhibition of p-p38 MAPK, the inhibition of p38 MAPK was identified by treating each compound to BV2 cells obtained by converting microglia that induces inflammation according to p-p38 MAPK activity in the brain into cancerous cells. Briefly, BV2 cells were cultured in Dulbecco's modified Eagle Medium supplemented with 10% fetal bovine serum and penicillin/streptomycin (100 U/ml). BV2 cells were treated with 1 μM of Compounds 4 to 6 according to the present disclosure in a culture dish respectively and cultured for 24 hours in a CO2 incubator, and then treated with 1000 ng/ml of LPS, followed by additional culture for 24 hours in a CO2 incubator.\n(§3) After the cell culture was completed according to the experimental conditions, washing was performed with cold phosphate buffered saline (PBS). The cells were then collected and centrifuged at 1200 rpm for 3 minutes. RNA was extracted according to the method provided in the Hybrid-R total RNA purification kit (GeneAllR), 305-101). After measuring the concentration and purity of RNA using Nanodrop, cDNA was synthesized according to the method provided in TOPscript RT DryMIX (Enzynomics, RT200). […]"}, "IL-1β mRNA [2]": {"test_system": "IL-1β mRNA", "assay": "Cytokine mRNA expression inhibitory ability, IL-1β, LPS-treated BV2 cells", "assay_type": "cell-based", "details": "1 μM compound 24 hours, then 1000 ng/ml LPS 24 hours", "method": "as §1, §2, §3"}, "p-p38 MAPK": {"target": "p-p38 MAPK (Mus musculus (Mouse), UniProt P47811)", "sequence (P47811 whole entry)": "as the sequence (Q16539 whole entry) above, with L48H, T263A counted along it", "assay": "p38 MAPK protein inhibitory ability in cells (p-p38 immunoblot, LPS-treated Raw264.7)", "assay_type": "cell-based", "details": "Raw264.7 cells, 1 μM compound 24 hours, then 100 ng/ml LPS 6 hours", "method": "Evaluation of p38 MAPK protein inhibitory ability in cells\n(§4) In order to identify inhibition of p-p38 MAPK, inhibition of p38 MAPK was identified after treating each compound to Raw264.7 cells which are obtained by converting macrophages that induces inflammation according to p-p38 MAPK activity into cancerous cells. Briefly, Raw264.7 cells were cultured in Dulbecco's modified Eagle Medium supplemented with 10% fetal bovine serum and penicillin/streptomycin (100 U/ml). Raw264.7 cells were treated with 1 μM of Compounds 1 to 5 according to the present disclosure in a culture dish respectively and cultured for 24 hours in a CO2 incubator, and then treated with 100 ng/ml of LPS, followed by additional culture for 6 hours in a CO2 incubator.\nAfter cell culture was terminated according to the experimental conditions, cells were washed with cold phosphate buffered saline (PBS). The cells were then collected and centrifuged at 1200 rpm for 3 minutes. The pellet was lysed with 2X sample buffer (1M Tris-HCl pH 6.8, 50% glycerol, 10% SDS, 2-mercaptoethanol, 1% bromophenol blue) and boiled at 100° C. for 10 minutes. The prepared protein samples were subjected to sodium dodecyl sulfate poly acrylamide gel electrophoresis and transferred to PVDF membrane (Millipore). For a specific binding reaction between the protein in the PVDF membrane and antibody, blocking was performed in a 5% bovine serum albumin (BSA, RMbio) solution. Subsequently, the BSA solution was discarded, and the membrane was washed with PBS-T (0.5% Tween 20 in PBS). The binding reaction of the protein in the membrane and antibody was performed overnight at 4° C. and washed again with PBS-T. Finally, a secondary antibody (Cell signaling Technology) conjugated with horse radish peroxidase (HRP) was diluted in PBS-T and reacted at room temperature for 2 hours. Luminata Forte HRP substrate (Millipore) was used to determine the amount of protein in the membrane, the results of which are shown in Table 4 below."}, "TNFα mRNA [3]": {"test_system": "TNFα mRNA", "assay": "Cytokine mRNA expression inhibitory ability, TNFα, LPS-treated Raw264.7 cells", "assay_type": "cell-based", "details": "1 μM compound 24 hours, then 100 ng/ml LPS 24 hours", "method": "(§5) Evaluation of cytokine mRNA expression inhibitory ability according to inflammatory response\nas §4, with “cells” for “cells which are”, “activity” for “activity into”, “for 24” for “for 6”\n(§6) After cell culture was terminated according to the experimental conditions, cells were washed with cold phosphate buffered saline (PBS). The cells were then collected and centrifuged at 1200 rpm for 3 minutes. RNA was extracted according to the method provided in the Hybrid-R total RNA purification kit (GeneAll, 305-101). After measuring the concentration and purity of RNA using Nanodrop, cDNA was synthesized according to the method provided in TOPscript RT DryMIX (Enzynomics, RT200). After a reaction at 95° C. for 3 minutes using SYBR Green Mix along with primer, cDNA was subjected to repetitive reactions 30 times at 95° C. for 10 seconds, at 55° C. for 10 seconds, and at 72° C. for 30 seconds to determine the RNA expression level. The results are shown in Tables 5 and 6 below and FIGS. 1 and 2."}, "IL-1β mRNA [4]": {"test_system": "IL-1β mRNA", "assay": "Cytokine mRNA expression inhibitory ability, IL-1β, LPS-treated Raw264.7 cells", "assay_type": "cell-based", "details": "1 μM compound 24 hours, then 100 ng/ml LPS 24 hours", "method": "as §5\nas §4, with “cells” for “cells which are”, “activity” for “activity into”, “for 24” for “for 6”\nas §6"}}, "data": [{"smiles": "Cc1c(F)cc(C(=O)NC2CC2)cc1-c1ccc(C(=O)c2c[nH]c3ccccc23)cn1", "note": "[Compound 4, 3-(5-(1H-indole-3-carbonyl)pyridin-2-yl)-N-cyclopropyl-5-fluoro-4-methylbenzamide]", "values": [{"measurement": "IC50", "setting": "p38 alpha", "result": 18.8, "unit": "nM"}, {"measurement": "TNFα mRNA inhibition", "setting": "TNFα mRNA [1]", "result": 24.5, "unit": "%"}, {"measurement": "IL-1β mRNA inhibition", "setting": "IL-1β mRNA [2]", "result": 68.5, "unit": "%"}, {"measurement": "inhibition at 1 µM", "setting": "p-p38 MAPK", "result": 68, "unit": "%"}, {"measurement": "TNFα mRNA inhibition", "setting": "TNFα mRNA [3]", "result": 51.5, "unit": "%"}, {"measurement": "IL-1β mRNA inhibition", "setting": "IL-1β mRNA [4]", "result": 38.2, "unit": "%"}]}]}
